For 38 compounds, TGI and GI50 results are on record in PubChem BioAssay (NCI).

Structures are written as SMILES.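 Step 1: Grow cells in 96-well plates. Step 2: Expose to compound for 48 hours at 5 concentrations. Step 3: Interpolate endpoints linearly; if unreached, use highest concentration. The concentration for 50% growth inhibition is given as GI50. At the TGI there is no net growth.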 A value given as a limit tells only on which side of the number the result lay.

Common to all, as to assay: NCI tumour cell line growth inhibition, 48 h
Test [1] concerns DMS 273 small cell lung.
The subject of test [2] is M19-MEL melanoma.
Test [3] concerns LXFL 529 NSCLC.
Test [4] concerns RXF-631 renal.
Test [5] relates to DMS 114 small cell lung.
For test [6], the system named is DLD-1 colon.
Test [7] concerns SNB-78 CNS.
In test [8] the test system is XF 498 CNS.
Test [9] relates to MDA-N.
Test [10] has as its system P388/ADR leukemia.
Test [11] has as its system SN12K1 renal.
Test [12] relates to P388 leukemia.

Regarding `CC(=O)OCCOCNC(=S)N/N=C(\C)c1ccco1`, the TGI in [1], in [2], in [3], in test [4], in test [5] and in test [6] was over 100 µM throughout. In addition, the TGI in [7] was over 100 µM.
Regarding `CCC(=O)O[C@@H]1C2C(OC(C)=O)C34COC(C)([C@@H]3C3C(C[C@]3(C)OC(C)=O)[C@@H](OC(=O)c3ccccc3)C4=O)[C@H](OC(C)=O)[C@@]2(OC(C)=O)C[C@@H]1C` (some centres not stated), the TGI in [1] is over 100 µM; in test [2], over 100 µM; in test [3], over 100 µM; in [4], over 100 µM; in test [5], 51.3 µM; in [6], over 100 µM. For the same compound, in test [7], the TGI came to 73.4 µM.
On to `Cn1cc(C(=O)C2CCCCC2)ccc1=O`, for which the TGI in test [1], in test [4], in test [5], in test [6], in test [7] and in test [8] was over 100 µM in each case.
For `COc1ccccc1NC(=O)C1=C(C)NC(C)=C(C(=O)Nc2ccccc2OC)C1c1ccc(C(C)C)cc1`, the TGI in test [1], in test [2], in test [3], in test [4], in test [6] and in test [8] was over 100 µM in each case.
For the compound `CC(CN(CP(=O)([O-])[O-])CP(=O)([O-])[O-])N(CP(=O)([O-])[O-])CP(=O)([O-])[O-].N[C@@H]1CCCC[C@@H]1N.[Pt+2]` (configuration not stated), the GI50 in test [1], in test [3], in [6] and in test [7] was over 100 µM in each case. Further, the TGI in test [1], in test [3], in test [6] and in test [7] was over 100 µM each time.
On to `Cc1ccc(S(=O)(=O)N2CCCCC2CCO)cc1` (configuration not stated), for which the TGI in test [1], in test [2], in [3], in test [5], in [6] and in [7] was over 100 µM each time.
The compound `CC(C)(C)c1ccc(-c2nnc(SCc3ccc(Cl)cc3)n2-c2cccc(C(F)(F)F)c2)cc1` came in with a TGI in test [9] of over 100 µM.
For `Cc1cc(Cl)ccc1NC(=O)C1C(=O)N(c2ccc(Cl)cc2C)C(=O)/C1=N\N` (configuration not stated), the TGI in test [2], in [3], in [5], in [7] and in test [8] was over 100 µM each time.
`O=C(/C=C/c1ccccc1F)C(c1ccccc1)c1ccccc1`: the TGI in [1] was found to be 38.1 µM; in test [3], 12 µM; in test [6] it was 12.7 µM; in [7] it was 34.8 µM; in [8], 3.56 µM.
In the case of `CCN(CCCl)CCNc1c2ccccc2nc2ccc(OC)cc12`, the TGI in test [1] turned out to be 2.02 µM; in test [2], 2.24 µM; in test [10] it was 2.29 µM; in test [3] it was 1.87 µM; in test [4], 4.4 µM; in test [5], 2.35 µM. Also, the TGI in [6] turned out to be 3.46 µM; in test [7], 4.68 µM; in [11], 3.08 µM; in test [8], 2.43 µM; in [12], 0.58 µM.
In the case of `CC(C)(C)c1cc(C(O)(C(F)(F)F)C(F)(F)F)c2c(c1)C(C(F)(F)F)(C(F)(F)F)OC(c1ccccc1)(C(C)(C)C)N2` (configuration not stated), the TGI is 13.6 µM in test [1]; 13.8 µM in test [2]; 12.5 µM in [3]; 9.8 µM in [5]; 14.6 µM in test [6]; 24.1 µM in test [7]. This compound also displayed a TGI in [8] of 6.24 µM.
As for `CCCCOC(=O)N[C@H]1CCc2cc(OC)c(OC)c(OC)c2-c2ccc(SC)c(=O)cc21`, the TGI in test [2] was 65.7 µM; in test [3] it was 29.5 µM; in test [5], under 0.01 µM; in test [9], under 0.01 µM; in [6] it was over 100 µM; in [7], over 4.64 µM. This compound also yielded a TGI in test [8] of 2.55 µM.
With `O=C1/C(=C/c2ccc(O)cc2)CCC1CNc1ccc(Cl)cc1` (configuration not stated), the TGI in [1] was found to be 12.1 µM; in [2], 12.5 µM; in test [3], 2.39 µM; in test [4], 32.1 µM; in [5] it was 9.02 µM; in test [9], 20.9 µM. The TGI in [6] is 2.97 µM; in [7], 33.8 µM.
Regarding `O=C1C(c2ccccc2)=C(c2ccccc2)C(c2ccccc2)/C1=C1\C(=O)C(c2ccccc2)=C(c2ccccc2)C1c1ccccc1` (configuration not stated), the TGI in test [1], in [2], in test [3], in test [5], in [6] and in test [7] was over 100 µM in each case.
For `CC(C)(C)c1ccccc1NS(=O)(=O)c1ccccc1`, the TGI in test [1], in [2], in [3], in test [4], in test [5] and in test [7] was over 100 µM each time. Further, the TGI in test [8] was over 100 µM.
In the case of `Cc1cccc(C)c1NC(=O)C(=O)C1C(=O)N(c2ccccc2)N=C1N` (configuration not stated), the TGI in [1], in [2], in [3], in test [5], in test [6] and in test [7] was over 100 µM each time.
As to `CC(=O)O[C@H]1CC[C@@]2(C)C(=CC[C@@H]3C2CC[C@]2(C)Nc4oncc4CC32)C1` (some centres not stated), the TGI was 73.5 µM in test [1]; over 100 µM in [2]; 26.5 µM in [3]; over 100 µM in test [4]; over 100 µM in test [6]; 84.4 µM in test [8].
Regarding `CCCCCCCCCCCCC(Br)C(=O)SCCNC(=O)CCNC(=O)[C@@H](O)C(C)(C)COP(=O)(O)OP(=O)(O)OCC1OC(n2cnc3c(N)ncnc32)C(O)C1OP(=O)(O)O` (some centres not stated), the TGI in test [1], in test [2], in test [3], in [5], in test [6] and in test [7] was over 56.5 µM throughout. The same compound displayed a TGI in test [8] of over 56.5 µM.
For the compound `CC(O)CN(CCN(CC(C)O)CC(C)O)CC(C)O.O=[N+]([O-])O.[Cu+2]` (configuration not stated), in test [9], the GI50 is over 100 µM and the TGI is over 100 µM.
In the case of `CCOC(=O)[C@H]1Nc2ccc(O)cc2C2c3ccccc3CC21` (some centres not stated), the TGI in test [1], in [2], in test [3], in [4], in test [5] and in [6] was over 100 µM in each case. This compound came in with a TGI in [7] of over 100 µM.
In the case of `CCCCCCCCCCCCCC(=O)OCC1OC(OC)C(NC(=O)N(CCCl)N=O)C(O)C1O` (configuration not stated), the TGI came out at 47.1 µM in test [1]; 38.8 µM in test [3]; 53.9 µM in test [4]; 57.3 µM in test [5]; 81.3 µM in test [6]; 90.7 µM in test [7]. The compound also returned a TGI in test [8] of 36.7 µM.
With `O=c1c2ccccc2nc(-c2ccc(Cl)cc2)n1O`, the TGI in test [9] is over 100 µM.
In the case of `CCOc1ccc(NC(=O)C2=C(C)NC(C)=C(C(=O)Nc3ccc(OCC)cc3)C2c2ccc([N+](=O)[O-])cc2)cc1`, the TGI in test [2] was over 100 µM; in test [3] it was over 100 µM; in test [5], over 100 µM; in test [6], over 100 µM; in test [7] it was over 100 µM; in test [8] it was 70.7 µM.
On to `O=C(CC1C(=O)Nc2ccccc2S1=O)Nc1cccc(Cl)c1` (configuration not stated), for which the TGI in [2] was over 100 µM; in test [3], over 100 µM; in test [5], over 100 µM; in test [9], 56.1 µM; in [6] it was over 100 µM; in test [7] it was over 100 µM. The TGI in [8] was over 100 µM.
Turning to `O=S1(=O)CSc2ccc3ccccc3c2-c2c1ccc1ccccc21`, the TGI in test [1], in [2], in test [3], in test [4], in test [5] and in test [6] was over 100 µM each time. Also, the TGI in test [7] and in test [8] was over 100 µM each time.
In the case of `C[Si](C)(C)/C(Br)=C\CCN1C(=O)CCC1O` (configuration not stated), the TGI in test [1], in [2], in test [3], in test [5], in test [7] and in test [8] was over 100 µM in each case.
The compound `CC(=O)Nc1ccc(C(=O)N[C@@H]2C(=O)N3[C@@H]2SC(C)(C)[C@@H]3C(=O)O)cn1` gave a TGI in test [9] of over 100 µM.
Regarding `O=Cc1ccc(C(F)(F)F)cc1.[C-]#[O+].[C-]#[O+].[C-]#[O+].[Cr]`, in test [9], the GI50 was 18 µM and the TGI turned out to be 55.1 µM.
Consider `N#CC(C#N)=C1NC(=O)C(c2ccccc2)C(=O)N1` (configuration not stated), for which the TGI in [1], in [2], in [3], in [4], in test [5] and in [6] was over 100 µM throughout. Further, the TGI in [7] and in test [8] was over 100 µM each time.
For `CC(C)(C)NNc1c([N+](=O)[O-])cnn(-c2ccccc2)c1=O`, the TGI in [1] amounted to 10.4 µM; in test [2], 5.61 µM; in test [3] it was 3.25 µM; in [6], 9.52 µM; in [7] it was 58.7 µM; in [8], 5.22 µM.
Consider `O=C(O)/C(Cl)=C(/Cl)C(=O)Nc1cccc(Cl)c1`, for which the TGI in test [1] was determined as 18.9 µM; in test [2], 30.4 µM; in test [3], 30.3 µM; in test [4], 49.1 µM; in [5] it was 32.2 µM; in test [9] it was 37.4 µM. In addition, the results for the TGI in test [6], in [7] and in test [8] were 34 µM, 61 µM and 34.3 µM, respectively.
As for `CCOC1NC(=O)Oc2ccccc21` (configuration not stated), the TGI in [9] is over 100 µM.
On to `COC(=O)C1Cc2c([nH]c3ccccc23)C=N1` (configuration not stated), for which the TGI in test [1], in test [2], in test [3], in test [5], in test [6] and in [7] was over 100 µM each time.
In the case of `COC(=O)/C(C#N)=C1\N=NNN1CCCc1ccccc1`, the TGI in [1], in test [2], in test [3], in [4], in test [5] and in [6] was over 100 µM each time. In test [7], this compound displayed a TGI of over 100 µM.
In turn, `COc1ccc(Cc2ccccc2C(=O)O)c2ccccc12` returned a TGI in test [9] of 74.4 µM.
Consider `Cc1cc2c(=O)cc(-c3ccc(Cl)cc3)oc2c(C(=O)O)c1C`, for which the TGI in [1], in [2], in test [3], in test [4], in [5] and in [6] was over 100 µM in each case. In addition, the TGI in test [7] and in [8] was over 100 µM throughout.
Consider `COc1nc2c(nc(N)n2C2OC(CO)C(O)C(O)C2O)c(=O)n1C` (configuration not stated), for which the TGI in [2], in test [3], in test [4], in test [5], in [6] and in test [7] was over 100 µM each time. Besides, in test [8], the TGI is over 100 µM.
In test [9], `NCCOc1ccccn1` had a TGI of over 100 µM.
